# Measurements from PubChem BioAssay (NCI).
#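 Test compounds were applied to cells in 96-well plates for 48 hours at 5 doses. Here, GI50 denotes the concentration required for 50% inhibition of growth. TGI: concentration producing complete growth inhibition.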
# Legend:
# Test in all cases: growth of human tumour cells (NCI), 48 h
# [1] = tested on: HOP-62 NSCLC
# [2] = tested on: MDA-MB-435
# [3] = tested on: SNB-75 CNS
# [4] = tested on: SW-620 colon
# [5] = tested on: SR leukemia
# [6] = tested on: HCT-15 colon
# [7] = tested on: COLO 205 colon
# [8] = tested on: OVCAR-5 ovarian
# [9] = tested on: NCI-H226 lung
# [10] = tested on: KM12 colon
# [11] = tested on: DU-145 prostate
# [12] = tested on: OVCAR-4 ovarian
# [13] = tested on: SF-539 CNS
# [14] = tested on: NCI-H460 lung
# [15] = tested on: MDA-MB-231 breast
# [16] = tested on: UO-31 renal
# [17] = tested on: T-47D breast
# [18] = tested on: SK-MEL-2 melanoma
# [19] = tested on: A549 NSCLC
# [20] = tested on: PC-3 prostate
# [21] = tested on: HCC-2998 colon
# [22] = tested on: TK-10 renal
# [23] = tested on: 786-0 renal
# [24] = tested on: SF-268 CNS
# [25] = tested on: SK-OV-3 ovarian
# [26] = tested on: HL-60(TB) leukemia
# [27] = tested on: ACHN renal
# [28] = tested on: EKVX NSCLC
# [29] = tested on: RPMI-8226 leukemia
# [30] = tested on: SK-MEL-28 melanoma
# [31] = tested on: SK-MEL-5 melanoma
# [32] = tested on: MOLT-4 leukemia
# [33] = tested on: NCI/ADR-RES ovarian
# [34] = tested on: SF-295 CNS
# [35] = tested on: CCRF-CEM leukemia
# [36] = tested on: K-562 leukemia
# [37] = tested on: HS 578T breast
# [38] = tested on: UACC-257 melanoma
# [39] = tested on: SN12C renal
# [40] = tested on: CAKI-1 renal
# [41] = tested on: HCT-116 colon
# [42] = tested on: A498 renal
# [43] = tested on: M14 melanoma
# [44] = tested on: UACC-62 melanoma
# [45] = tested on: HT29 colon
# [46] = tested on: RXF 393 renal
# [47] = tested on: SNB-19 CNS
# [48] = tested on: MCF7 breast
# [49] = tested on: MALME-3M melanoma
# [50] = tested on: IGROV1 ovarian
# [51] = tested on: LOX IMVI melanoma
# [52] = tested on: HOP-92 NSCLC
# [53] = tested on: OVCAR-3 ovarian
# [54] = tested on: U251 CNS
# [55] = tested on: BT-549 breast
# [56] = tested on: OVCAR-8 ovarian
# [57] = tested on: NCI-H522 lung
smiles,measurement,setting,value
N#Cc1c(-c2cccs2)cc(-c2cnccn2)nc1SCC(=O)N/N=C/c1ccccc1,GI50,[1],3.2 µM
same,TGI,[1],11 µM
same,GI50,[2],4.49 µM
same,TGI,[2],16.2 µM
same,GI50,[3],3.3 µM
same,TGI,[3],18.5 µM
same,GI50,[4],4.97 µM
same,TGI,[4],20.2 µM
same,GI50,[5],11.2 µM
same,TGI,[5],35.8 µM
same,GI50,[6],6.88 µM
same,TGI,[6],27.4 µM
same,GI50,[7],11.3 µM
same,TGI,[7],> 100 µM
same,GI50,[8],10.4 µM
same,TGI,[8],23.3 µM
same,GI50,[9],3.41 µM
same,TGI,[9],12.9 µM
same,GI50,[10],9.18 µM
same,TGI,[10],> 100 µM
same,GI50,[11],3.86 µM
same,TGI,[11],12.7 µM
same,GI50,[12],3.61 µM
same,TGI,[12],15.3 µM
same,GI50,[13],6.64 µM
same,TGI,[13],19.3 µM
same,GI50,[14],3.93 µM
same,TGI,[14],13.3 µM
same,GI50,[15],4.23 µM
same,TGI,[15],15.1 µM
same,GI50,[16],6.1 µM
same,TGI,[16],19.6 µM
same,GI50,[17],2.94 µM
same,TGI,[17],15.7 µM
same,GI50,[18],10.3 µM
same,TGI,[18],23 µM
same,GI50,[19],5.66 µM
same,TGI,[19],20.2 µM
same,GI50,[20],6.29 µM
same,TGI,[20],19.2 µM
same,GI50,[21],10.7 µM
same,TGI,[21],25.1 µM
same,GI50,[22],4.51 µM
same,TGI,[22],15.3 µM
same,GI50,[23],3.64 µM
same,TGI,[23],14.4 µM
same,GI50,[24],10.3 µM
same,TGI,[24],24.6 µM
same,GI50,[25],14.7 µM
same,TGI,[25],27.9 µM
same,GI50,[26],> 100 µM
same,TGI,[26],> 100 µM
same,GI50,[27],6.14 µM
same,TGI,[27],18.7 µM
same,GI50,[28],6.48 µM
same,TGI,[28],19.4 µM
same,GI50,[29],3.46 µM
same,TGI,[29],20.9 µM
same,GI50,[30],4.06 µM
same,TGI,[30],14.5 µM
same,GI50,[31],3.52 µM
same,TGI,[31],13 µM
same,GI50,[32],47 µM
same,TGI,[32],> 100 µM
same,GI50,[33],4.95 µM
same,TGI,[33],16.7 µM
same,GI50,[34],4.92 µM
same,TGI,[34],17.1 µM
same,GI50,[35],49.9 µM
same,TGI,[35],> 100 µM
same,GI50,[36],10.8 µM
same,TGI,[36],> 100 µM
same,GI50,[37],6.77 µM
same,TGI,[37],31.8 µM
same,GI50,[38],15.1 µM
same,TGI,[38],48.6 µM
same,GI50,[39],6.15 µM
same,TGI,[39],18.8 µM
same,GI50,[40],3.66 µM
same,TGI,[40],14.1 µM
same,GI50,[41],5.14 µM
same,TGI,[41],17.3 µM
same,GI50,[42],4.46 µM
same,TGI,[42],17.3 µM
same,GI50,[43],4.98 µM
same,TGI,[43],16.4 µM
same,GI50,[44],8.67 µM
same,TGI,[44],21 µM
same,GI50,[45],4.98 µM
same,TGI,[45],21.3 µM
same,GI50,[46],2.5 µM
same,TGI,[46],6.97 µM
same,GI50,[47],7.21 µM
same,TGI,[47],19.8 µM
same,GI50,[48],3.52 µM
same,TGI,[48],14.8 µM
same,GI50,[49],3.33 µM
same,TGI,[49],9.49 µM
same,GI50,[50],5.09 µM
same,TGI,[50],17.3 µM
same,GI50,[51],2.8 µM
same,TGI,[51],10 µM
same,GI50,[52],2.26 µM
same,TGI,[52],8.49 µM
same,GI50,[53],3.88 µM
same,TGI,[53],12.3 µM
same,GI50,[54],3.43 µM
same,TGI,[54],12.1 µM
same,GI50,[55],8.31 µM
same,TGI,[55],20.7 µM
same,GI50,[56],6.01 µM
same,TGI,[56],19.4 µM
same,GI50,[57],10.3 µM
same,TGI,[57],23.9 µM
